Assay [1] concerns DU-145. Nature of the assay: Cell cycle arrest in human DU145 cells assessed as accumulation at G1 phase at 50 uM after 24 hrs by flow cytometry using propidium iodide staining. It counts as functional.
For assay [2], the system named is DU-145. Briefly: Cell cycle arrest in human DU145 cells assessed as accumulation between G1 phase and G2M phase at 50 uM after 24 hrs by flow cytometry using propidium iodide staining. It counts as functional.
Assay [3] deals with DU-145. Briefly: Cell cycle arrest in human DU145 cells assessed as accumulation at G2M phase at 100 uM after 24 hrs by flow cytometry using propidium iodide staining. In kind it is functional.
For assay [4], the system named is DU-145. Briefly: Cell cycle arrest in human DU145 cells assessed as accumulation at < G2M phase at 50 uM after 24 hrs by flow cytometry using propidium iodide staining. In kind it is functional.
In assay [5] the test system is DU-145. Briefly: Cell cycle arrest in human DU145 cells assessed as accumulation at G1 phase at 100 uM after 24 hrs by flow cytometry using propidium iodide staining. In kind it is functional.
The subject of assay [6] is DU-145. Nature of the assay: Cell cycle arrest in human DU145 cells assessed as accumulation at G2M phase at 50 uM after 24 hrs by flow cytometry using propidium iodide staining. It counts as functional.
Assay [7] concerns DU-145. Nature of the assay: Cell cycle arrest in human DU145 cells assessed as accumulation at >G1 phase at 100 uM after 24 hrs by flow cytometry using propidium iodide staining. It counts as functional.
For assay [8], the system named is DU-145. Briefly: Cell cycle arrest in human DU145 cells assessed as accumulation between G1 phase and G2M phase at 100 uM after 24 hrs by flow cytometry using propidium iodide staining. In kind it is functional.
In assay [9] the test system is DU-145. Briefly: Cell cycle arrest in human DU145 cells assessed as accumulation at >G1 phase at 50 uM after 24 hrs by flow cytometry using propidium iodide staining. In kind it is functional.
The test system of assay [10] is DU-145. Nature of the assay: Induction of apoptosis in human DU145 cells at interphase assessed as alteration in microtubule array at 100 uM after 24 hrs by beta tubulin immunofluorescent staining. It counts as functional, cell-based.
In assay [11] the test system is DU-145. Nature of the assay: Cell cycle arrest in human DU145 cells assessed as accumulation at < G2M phase at 100 uM after 24 hrs by flow cytometry using propidium iodide staining. It counts as functional.
Assay [12] has as its system DU-145. Briefly: Induction of apoptosis in human DU145 cells at interphase assessed as dencer microtubue network at 2 nM after 24 hrs by beta tubulin immunofluorescent staining. In kind it is functional, cell-based.
For assay [13], the system named is DU-145. Nature of the assay: Induction of apoptosis in human DU145 cells at interphase assessed as complete disappearance of microtubules at 25 uM after 24 hrs by beta tubulin immunofluorescent staining. It counts as functional, cell-based.
Assay [14] deals with DU-145. Briefly: Cell cycle arrest in human DU145 cells assessed as accumulation at >G1 phase at 10 uM after 24 hrs by flow cytometry using propidium iodide staining. It counts as functional.
For assay [15], the system named is DU-145. Nature of the assay: Cell cycle arrest in human DU145 cells assessed as accumulation at >G1 phase at 5 uM after 24 hrs by flow cytometry using propidium iodide staining. In kind it is functional.
The subject of assay [16] is DU-145. Nature of the assay: Cell cycle arrest in human DU145 cells assessed as accumulation at G2M phase at 5 uM after 24 hrs by flow cytometry using propidium iodide staining. In kind it is functional.
Assay [17] relates to DU-145. Nature of the assay: Cell cycle arrest in human DU145 cells assessed as accumulation at G2M phase relative to control. It counts as functional.
The test system of assay [18] is DU-145. Briefly: Cell cycle arrest in human DU145 cells assessed as accumulation at < G2M phase at 10 uM after 24 hrs by flow cytometry using propidium iodide staining. It counts as functional.
In assay [19] the test system is DU-145. Briefly: Cell cycle arrest in human DU145 cells assessed as accumulation at < G2M phase at 5 uM after 24 hrs by flow cytometry using propidium iodide staining. In kind it is functional.
Assay [20] deals with DU-145. Nature of the assay: Cell cycle arrest in human DU145 cells assessed as accumulation at G2M phase at 10 uM after 24 hrs by flow cytometry using propidium iodide staining. It counts as functional.
In assay [21] the test system is DU-145. Nature of the assay: Induction of apoptosis in human DU145 cells at interphase assessed as loosened of microtubule network at 5 uM after 24 hrs by beta tubulin immunofluorescent staining. In kind it is functional, cell-based.
In assay [22] the test system is DU-145. Briefly: Cell cycle arrest in human DU145 cells assessed as accumulation between G1 phase and G2M phase at 5 uM after 24 hrs by flow cytometry using propidium iodide staining. It counts as functional.
The subject of assay [23] is DU-145. Nature of the assay: Cell cycle arrest in human DU145 cells assessed as accumulation at G1 phase at 10 uM after 24 hrs by flow cytometry using propidium iodide staining. It counts as functional.
The subject of assay [24] is DU-145. Nature of the assay: Cell cycle arrest in human DU145 cells assessed as accumulation at G1 phase at 5 uM after 24 hrs by flow cytometry using propidium iodide staining. In kind it is functional.
The test system of assay [25] is DU-145. Briefly: Cell cycle arrest in human DU145 cells assessed as accumulation between G1 phase and G2M phase at 10 uM after 24 hrs by flow cytometry using propidium iodide staining. It counts as functional.
The subject of assay [26] is DU-145. Briefly: Induction of apoptosis in human DU145 cells at interphase assessed as curly appearance of microtubules at 1 nM after 24 hrs by beta tubulin immunofluorescent staining. It counts as functional, cell-based.

SMILES strings stand for the structures. Active and inactive are the calls of the source. The rule behind the calls is not given here.

For `O=c1c(-c2ccc(O)cc2)coc2cc(O)cc(O)c12` [GENISTEIN], the Activity with DU-145 [1] stood at 55.9%; with DU-145 [2], 19.2%; in the assay with DU-145 [3], 27.2%; in the assay on DU-145 [4], 2.8%; in the assay with DU-145 [5] it was 44.3%; in the assay with DU-145 [6], 17.1%. The Activity in the assay with DU-145 [7] was determined as 6.1%; with DU-145 [8], 20.8%; in the assay with DU-145 [9], 5.1%; in the assay with DU-145 [11] it was 1.6%. The result in the assay on DU-145 [10] was inactive.

With `CC(=O)O[C@H]1C(=O)[C@@]2(C)[C@H]([C@H](OC(=O)c3ccccc3)[C@]3(O)C[C@H](OC(=O)[C@H](O)[C@@H](NC(=O)c4ccccc4)c4ccccc4)C(C)=C1C3(C)C)[C@]1(OC(C)=O)CO[C@@H]1C[C@@H]2O`, the outcome in the assay with DU-145 [12] was Active.

Turning to `CC(=O)OC[C@H]1O[C@@H](O[C@H]2C=C[C@@H](Oc3cc(O)c4c(=O)c(-c5ccc(O)cc5)coc4c3)O[C@@H]2COC(C)=O)[C@H](OC(C)=O)[C@@H](OC(C)=O)[C@H]1OC(C)=O`, the result with DU-145 [13] and with DU-145 [21] was Active. Moreover, the Activity is listed as 5.7% in the assay on DU-145 [14]; 7.5% in the assay on DU-145 [15]; 54.5% in the assay on DU-145 [16]; 30% in the assay on DU-145 [17]; 1.7% in the assay with DU-145 [18]; 1.4% in the assay with DU-145 [19]. Further, the Activity with DU-145 [20] is given as 57.8%; in the assay on DU-145 [22], 10.1%; in the assay on DU-145 [23] it was 23.4%; with DU-145 [24] it was 26.5%; in the assay on DU-145 [25] it was 11.4%.

On to `CC[C@]1(O)C[C@@H]2CN(CCc3c([nH]c4ccccc34)[C@@](C(=O)OC)(c3cc4c(cc3OC)N(C)[C@H]3[C@@](O)(C(=O)OC)[C@H](OC(C)=O)[C@]5(CC)C=CCN6CC[C@]43[C@@H]65)C2)C1`, for which the result in the assay with DU-145 [26] was Active.

For the origin of these results see ChEMBL document CHEMBL1155358, “Unsaturated genistein disaccharide glycoside as a novel agent affecting microtubules” (2009).
